{
  "source": "patent US5453440A",
  "about": "“Peptide mimics useful as platelet aggregation inhibitors” (G. D. Searle & Co., priority 1993, dated 1995)",
  "key": {"[1]": {"tested_on": "platelet aggregation in dog PRP", "assay": "In-vitro platelet aggregation in PRP (ADP-induced, dog platelet-rich plasma)", "type": "cell-based", "settings": "Canis lupus familiaris, ADP 50 μm final concentration, 37° C., 1 minute preincubation", "experimental": "Healthy male or female dogs were fasted for 8 hours prior to drawing blood; then 30 ml whole blood was collected using a butterfly needle and 30 cc plastic syringe with 3 ml of 0.129 M buffered sodium citrate (3.8%). The syringe was rotated carefully as blood was drawn to mix the citrate. Platelet-rich plasma (PRP) was prepared by centrifugation at 975×g for 3.17 minutes at room temperature, allowing the centrifuge to coast to a stop without braking. The PRP was removed from the blood with a plastic pipette and placed in a plastic capped, 50 ml Corning conical sterile centrifuge tube which was held at room temperature. Platelet poor plasma (PPP) was prepared by centrifuging the remaining blood at 2000×g for 15 minutes at room temperature allowing the centrifuge to coast to a stop without braking. The PRP was adjusted with PPP to a count of 2-3×10^8 platelets per ml. 400 μl of the PRP preparation and 50 μl of the compound to be tested or saline were preincubated for 1 minute at 37° C. in a BioData aggregometer (BioData, Horsham, Pa.). 50 μl of adenosine 5'-diphosphate (ADP) (50 μm final concentration) was added to the cuvettes and the aggregation was monitored for 1 minute. All compounds are tested in duplicate. Results are calculated as follows:\nPercent of control=[(maximal OD minus initial OD of compound) divided by (maximal OD minus initial OD of control saline)]×100. The % inhibition=100-(percent of control)."}, "[2]": {"tested_on": "fibrinogen binding to platelets", "assay": "Fibrinogen binding assay (125I-fibrinogen binding to ADP-activated human platelets)", "settings": "ADP 10 μM, 125I-fibrinogen 0.3 μM, 40 min at 37° C.", "experimental": "Fibrinogen binding was performed essentially as described by Plow et al., Blood 70, 110-115 (1987). Briefly, blood from humans who had not been given any antiplatelet drugs in the previous two weeks was collected into 1/10th volume of CCD buffer (100 mM sodium citrates, 136 mM glucose, pH 6.5). The blood was centrifuged for 3 min at 1000×g and platelet rich plasma was transferred to a plastic tube with a plastic pipet and placed on ice. After 15 minutes, 1/2 volume of ice cold CCD buffer was added and the sample was centrifuged at 900×g for 10 min at 2° C. The supernatant was decanted and the platelet pellet was gently resuspended in 1/2 the original volume of ice cold modified Tyrode's buffer (137 mM NaCl, 2.6 mM KCl, 12 mM NaHCO3, 5.5 mM glucose, 15 mM HEPES, 0.5% BSA, pH 7.4). After incubating for 30 minutes at 37° C., the platelet count was adjusted to 4×10^8 platelets/ml with modified Tyrode's buffer. To test samples (final concentration=1×10^8 platelets/ml) were added in sequence: ADP (10 μM), CaCl2 (2 mM), test compound, and ^125 I-fibrinogen (0.3 μM) to the aforesaid final concentrations in a volume of 200 μ1. […] Specific binding was determined in each test by subtracting from the total binding the amount of ^125 I-fibrinogen bound in the presence of a 60-fold excess of unlabeled fibrinogen. […]"}},
  "data": [
    {"smiles": "N=C(N)c1ccc(N(Cc2ccccc2)C(=O)CCC(=O)N[C@@H](CC(=O)O)C(=O)N[C@@H](Cc2ccccc2)C(=O)O)cc1", "note": "[Example 9]", "values": [
      {"measurement": "IC50", "setting": "[1]", "result": 0.35, "unit": "µM"}
    ]},
    {"smiles": "COC(=O)[C@H](Cc1ccccc1)NC(=O)[C@H](CC(=O)O)NC(=O)CCC(=O)Nc1ccc(C(=N)N)cc1", "note": "[Example 1, N-[N-[4-[[4-(aminoiminomethyl)phenyl]-amino]-1,4-dioxobutyl]-L-alpha-aspartyl]-L-phenylalanine, 1-methyl ester]", "values": [
      {"measurement": "IC50", "setting": "[1]", "result": 0.09, "unit": "µM"},
      {"measurement": "IC50", "setting": "[2]", "result": 0.048, "unit": "µM"}
    ]},
    {"smiles": "N=C(N)c1ccc(NC(=O)CCC(=O)N[C@@H](CC(=O)O)C(=O)N[C@@H](Cc2ccccc2)C(=O)O)cc1", "note": "[Example 2, N-[N-[4-[[4-(aminoiminomethyl)phenyl]amino]-1,4-dioxobutyl]-L-alpha-aspartyl]-L-phenylalanine]", "values": [
      {"measurement": "IC50", "setting": "[1]", "result": 0.08, "unit": "µM"}
    ]}
  ]
}
